Common to all, as to assay type: in vivo
Assay [1] relates to Rhipicephalus (Boophilus) microplus larvae (strain Parkhurst, resistant against synthetic pyrethroids). Briefly: Rhipicephalus (Boophilus) microplus in-vitro contact test, larval cattle tick. The settings on record: 5 μg/cm^2 (=500 g/ha), after 48 hours, read-out: efficacy (larvae dead or moribund). As to the method: Rhipicephalus (Boophilus) microplus—In-Vitro Contact Tests Larval Cattle Tick (Strain Parkhurst, Resistant Against Synthetic Pyrethroids)
(§1) 9 mg compound is solved in 1 mL acetone and diluted with acetone to the desired concentration. 250 μL of the test solution is filled in 25 mL glass test tubes and homogeneously distributed on the inner walls by rotation and tilting on a shaking device (2 h at 30 rpm). With a compound concentration of 900 ppm, an inner surface of 44.7 cm^2 and a homogeneous distribution, a dose of 5 μg/cm^2 is achieved.
After the solvent has evaporated, each test tube is filled with 20-50 cattle tick larvae (Rhipicephalus microplus), closed with a perforated lid and incubated in a horizontal position at 85% relative humidity and 27° C. in an incubator. After 48 hours efficacy is determined. The larvae are patted on the ground of the tubes and negative geotactic behavior is recorded.
An efficacy of 100% means all larvae are dead or moribund; 0% means no larvae are dead or moribund.

The subject of assay [2] is adult cat fleas (Ctenocephalides felis). Briefly: Ctenocephalides felis in-vitro contact test, adult cat flea. The settings on record: 5 μg/cm^2 (=500 g/ha), after 48 hours, read-out: efficacy (fleas dead or moribund). As to the method: Ctenocephalides felis—In-Vitro Contact Tests Adult Cat Flea
as §1
After the solvent has evaporated, each test tube is filled with 5-10 adult cat fleas (Ctenocephalides felis), closed with a perforated lid and incubated in a lying position at room temperature and relative humidity. After 48 hours efficacy is determined. The fleas are patted on the ground of the tubes and are incubated on a heating plate at 45-50° C. for at most 5 minutes Immotile or uncoordinated moving fleas, which are not able to escape the heat by climbing upwards, are marked as dead or moribund.
An efficacy of 100% means all fleas are dead or moribund; 0% means no fleas are dead or moribund.

Assay [3] has as its system adult brown dog ticks (Rhipicephalus sanguineus). Briefly: Rhipicephalus sanguineus in-vitro contact test, adult brown dog ticks. The settings on record: 5 μg/cm^2 (=500 g/ha), after 48 hours, read-out: efficacy (ticks dead or moribund). As to the method: Rhipicephalus sanguineus—In-Vitro Contact Tests with Adult Brown Dog Ticks
as §1
After the solvent has evaporated, each test tube is filled with 5-10 adult brown dog ticks (Rhipicephalus sanguineus), closed with a perforated lid and incubated in a lying position at room temperature and relative humidity. After 48 hours efficacy is determined. The ticks are patted on the ground of the tubes and are incubated on a heating plate at 45-50° C. for at most 5 minutes Immotile or uncoordinated moving ticks, which are not able to escape the heat by climbing upwards, are marked as dead or moribund.
An efficacy of 100% means all ticks are dead or moribund; 0% means no ticks are dead or moribund.

The test system of assay [4] is larvae of the banded cucumber beetle (Diabrotica balteata). Briefly: Diabrotica balteata spray test. The settings on record: 168 h, 100 g/ha (=32 μg/well), after 7 days, wheat seeds, read-out: efficacy (seedling growth). A digest of the protocol: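 Efficacy is seedling survival after 7 days, where 0% means no seedlings grew and 100% means growth equal to untreated, uninfested controls. Wheat seedlings, germinated on agar for 1 day, were sprayed with the aqueous emulsifier dilution (acetone/DMF solvent) and then exposed to 10–20 banded cucumber beetle larvae.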

Assay [5] deals with green peach aphid (Myzus persicae). Briefly: Myzus persicae spray test. The settings on record: foliar, 120 h, after 5 days, Chinese cabbage leaf disks. The protocol:
Myzus persicae—Spray Test
• Solvent: 78.0 parts by weight acetone • 1.5 parts by weight dimethylformamide • Emulsifier: alkylarylpolyglycol ether
To produce a suitable preparation of active compound, 1 part by weight of active compound is mixed with the stated amount of solvents and is diluted with water, containing an emulsifier concentration of 1000 ppm, to the desired concentration. Further test concentrations are prepared by dilution with emulsifier containing water.
Chinese cabbage (Brassica pekinensis) leaf disks infected with all instars of the green peach aphid (Myzus persicae), are sprayed with a preparation of the active ingredient of the desired concentration.
(§2) After 5 days mortality in % is determined. 100% means all aphids have been killed and 0% means none of the aphids have been killed.

The subject of assay [6] is larvae of the southern green stink bug (Nezara viridula). Briefly: Nezara viridula spray test. The settings on record: 96 h, after 4 days, barley plants. A digest of the protocol:
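Percent mortality of southern green stink bug larvae was recorded at day 4, with 100% meaning all dead. The larvae were placed on barley sprayed with the test solution. That solution was prepared from acetone/dimethylformamide concentrate diluted in emulsifier-containing water (1000 ppm).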

Assay [7] concerns fall armyworm larvae (Spodoptera frugiperda). Briefly: Spodoptera frugiperda spray test. The settings on record: in Zea mays, 168 h. A digest of the protocol:
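Maize leaf sections were sprayed with compound in acetone/dimethylformamide diluted in water with 1000 ppm emulsifier, dried, then infested with larvae. Mortality in % was scored after 7 days, 100% meaning all caterpillars killed.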

The test system of assay [8] is adult mosquitoes Aedes aegypti strain MONHEIM. Briefly: Aedes aegypti test (AEDSAE surface treatment & contact assay). The settings on record: 24 hours after contact, read-out: efficacy (mortality); for mortality at 4 mg/m2: surface concentration 4 mg/m^2, 30 minutes exposure; for mortality at 20 mg/m2: surface concentration 20 mg/m^2, 30 minutes exposure. The protocol:
Aedes aegypti Test (AEDSAE Surface Treatment & Contact Assay)
(§3) • Solvent: Aceton+2000 ppm rapeseed oil methyl ester (RME)
In order to produce a sufficient, active ingredient containing solution it is necessary to solve the test compound in the solvent-mix (acetone at 2 mg/ml/RME 2000 ppm). This solution is pipetted onto a glazed tile and after evaporation of the acetone, adult mosquitoes of the species Aedes aegypti strain MONHEIM are placed onto the dried surface. The exposure time is 30 minutes.
(§4) Mortality in percent (%) is determined 24 hours after contact of the insects to the treated surface. 100% mortality means that all tested insects are dead, whereas 0% means that no insect died.

Assay [9] has as its system adult mosquitoes Culex quinquefasciatus strain P00. Briefly: Culex quinquefasciatus test (CULXFA surface treatment & contact assay). The settings on record: 24 hours after contact, read-out: efficacy (mortality); for mortality at 4 mg/m2: surface concentration 4 mg/m^2, 30 minutes exposure; for mortality at 20 mg/m2: surface concentration 20 mg/m^2, 30 minutes exposure. As to the method:
Culex quinquefasciatus Test (CULXFA Surface Treatment & Contact Assay)
as §3
In order to produce a sufficient, active ingredient containing solution it is necessary to solve the test compound in the solvent-mix (acetone at 2 mg/ml/RME 2 000 ppm). This solution is pipetted onto a glazed tile and after evaporation of the acetone, adult mosquitoes of the species Culex Quinquefasciatus strain P00 are placed onto the dried surface. The exposure time is 30 minutes. Mortality in percent (%) is determined 24 hours after contact of the insects to the treated surface. 100% mortality means that all tested insects are dead, whereas 0% means that no insect died.

Assay [10] deals with adult flies Musca domestica strain WHO-N. Briefly: Musca domestica test (MUSCDO surface treatment & contact assay). The settings on record: 24 hours after contact, read-out: efficacy (mortality); for mortality at 4 mg/m2: surface concentration 4 mg/m^2, 30 minutes exposure; for mortality at 20 mg/m2: surface concentration 20 mg/m^2, 30 minutes exposure. The protocol: Musca domestica Test (MUSCDO Surface Treatment & Contact Assay)
as §3
In order to produce a sufficient, active ingredient containing solution it is necessary to solve the test compound in the solvent-mix (acetone at 2 mg/ml/RME 2000 ppm). This solution is pipetted onto a glazed tile and after evaporation of the acetone, adult flies of the species Musca domestica strain WHO-N are placed onto the dried surface. The exposure time is 30 minutes.
as §4

Assay [11] concerns green peach aphid (Myzus persicae). Briefly: Myzus persicae oral test. The settings on record: 120 h, 4 ppm, after 5 days. As to the method: • Solvent: 100 parts by weight acetone
To produce a suitable preparation of active compound, 1 part by weight of active compound is mixed with the stated amount of solvent, and the concentrate is diluted with water to the desired concentration.
50 μL compound solution is filled in microtiter plates and 150 μL IPL41 insect medium (33%+15% sugar) is added to obtain a total volume of 200 μL per well. Afterwards the plates are sealed with parafilm through which a mixed population of the green peach aphid (Myzus persicae) can suck on the compound preparation.
as §2

Assay [12] relates to adult engorged female ticks (Rhipicephalus microplus). Briefly: Rhipicephalus (Boophilus) microplus injection test. The settings on record: 168 h, egg deposition monitored after 7 days, read-out: efficacy (infertile eggs). A digest of the protocol: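 Five adult engorged female ticks each injected with 1 μL of DMSO compound solution into the abdomen, then kept in a climate chamber. Fertile egg deposition assessed after 7 days, with hatching followed to about 42 days; efficacy 100% means all eggs infertile, 0% all fertile.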

With `C[C@H](NC(=O)c1cc(C(F)(F)F)cc(C(C)(C)C#N)c1)c1ncnn1-c1ccc(C#N)cn1` [Example I-42], the pest or weed control at 5 µg/cm2, 5 µg/cm2 worked out at 100% in [1], 80% in [2] and 80% in assay [3]. For the same molecule, the pest or weed control at 32 µg/disc, 100 g/ha in assay [4] came to 100%. In addition, the mortality at 100 g/ha in [5], in [6] and in assay [7] was 100% throughout. Further, the mortality (commonly the share of the test organisms that died) at 500 g/ha in assay [6] came to 100%. The mortality at 4 mg/m2 in assay [8], in assay [9] and in assay [10] was 80 to 100% in each case. Moreover, the mortality at 20 mg/m2 in [8], in assay [9] and in assay [10] was 80 to 100% throughout.

Regarding `C[C@H](NC(=O)c1cc(OCC2CC2(Cl)Cl)cc(C(F)(F)F)c1)c1ncnn1-c1ccc(C#N)cn1` (stereo partly drawn) [Example I-29], the pest or weed control at 32 µg/disc, 100 g/ha in assay [4] was 100%. This molecule gave a mortality at 4 ppm in assay [11] of 90%.

As to `Cc1nc([C@H](C)NC(=O)c2cc(OC3CCOCC3)cc(C(F)(F)F)c2)n(-c2ccc(C#N)cn2)n1` [Example I-21, N-{(1S)-1-[1-(5-Cyanopyridin-2-yl)-3-methyl-1H-1,2,4-triazol-5-yl]ethyl}-3-(tetrahydro-2H-pyran-4-yloxy)-5-(trifluoromethyl)benzamide], the results for the pest or weed control at 5 µg/cm2, 5 µg/cm2 in assay [1] and in assay [3] were 100% and 80%, respectively. For the same molecule, the mortality at 100 g/ha in assay [7] is 83%.

For `C[C@H](NC(=O)c1cc(C(F)(F)F)cc(C(C)(C)C#N)c1)c1ncnn1-c1ncc(C#N)s1` [Example I-44, 3-(1-Cyano-1-methyl-ethyl)-N-[(1S)-1-[2-(5-cyanothiazol-2-yl)-1,2,4-triazol-3-yl]ethyl]-5-(trifluoromethyl)benzamide], the results for the pest or weed control at 5 µg/cm2, 5 µg/cm2 in assay [1], in assay [2] and in [3] were 100%, 100% and 80%, respectively. The mortality at 100 g/ha in assay [5], in assay [6] and in assay [7] was 100% throughout. This molecule also registered a mortality at 500 g/ha in assay [6] of 100%. Also, the mortality at 4 mg/m2 in assay [8], in [9] and in [10] was 80 to 100% throughout. Also, the mortality at 20 mg/m2 in [8], in assay [9] and in assay [10] was 80 to 100% in each case.

As for `Cc1nc([C@H](C)NC(=O)c2cc(OC(C)c3ccc(Cl)cc3)cc(C(F)(F)F)c2)n(-c2ccc(C#N)cn2)n1` (stereo partly drawn) [Example I-15, 3-[1-(4-Chlorophenyl)ethoxy]-N-{(1S)-1-[1-(5-cyanopyridin-2-yl)-3-methyl-1H-1,2,4-triazol-5-yl]ethyl}-5-(trifluoromethyl)benzamide], the pest or weed control at 4 µg/tick in assay [12] (4 μg/tick injected) came out at 100%. Moreover, in assay [12] (20 μg/tick injected), the pest or weed control at 20 µg/tick was 100%. The pest or weed control at 5 µg/cm2, 5 µg/cm2 in assay [3] turned out to be 80%. For the same molecule, in [4], the pest or weed control at 32 µg/disc, 100 g/ha turned out to be 100%.

Take `C[C@H](NC(=O)c1cc(Br)cc(C(F)(F)C2CC2)c1)c1ncnn1-c1cnc(C#N)cn1` [Example I-59]: the figures for the pest or weed control at 5 µg/cm2, 5 µg/cm2 in [1], in [2] and in assay [3] were 100%, 80% and 100%, respectively. Also, in [4], the pest or weed control at 32 µg/disc, 100 g/ha was 100%. For the same molecule, the values for the mortality at 100 g/ha in assay [5], in [6] and in [7] were 90%, 100% and 100%, respectively. Moreover, the mortality at 500 g/ha in assay [6] is 100%.

`C[C@H](NC(=O)c1cc(OCC(Cl)=C(Cl)Cl)cc(C(F)(F)F)c1)c1ncnn1-c1ncc([N+](=O)[O-])s1` [Example I-34] gave a mortality at 4 ppm in [11] of 90%.

In the case of `C[C@H](NC(=O)c1cc(C(F)(F)F)cc(C(C)(C)C#N)c1)c1ncnn1-c1cnc(C#N)cn1` [Example I-58], the pest or weed control at 5 µg/cm2, 5 µg/cm2 in assay [1] was 100%; in assay [2], 100%; in assay [3] it was 80%. Also, in [4], the pest or weed control at 32 µg/disc, 100 g/ha was 100%. The mortality at 100 g/ha worked out at 90% in assay [5], 100% in assay [6] and 100% in assay [7]. This molecule gave a mortality at 500 g/ha in assay [6] of 100%.

In the case of `C[C@H](NC(=O)c1cc(Br)cc(OC(C)(C)C#N)c1)c1ncnn1-c1ncc(C#N)s1` [Example I-60], the pest or weed control at 5 µg/cm2, 5 µg/cm2 in assay [1] came out at 100%; in assay [2], 80%. Moreover, the pest or weed control at 32 µg/disc, 100 g/ha in assay [4] was 100%. In addition, the mortality at 100 g/ha in assay [7] is 100%.

Source of the values: patent US12653190B2, “Heteroaryl-triazole compounds as pesticides” (Bayer Aktiengesellschaft, priority 2020, dated 2026).
